Where “and” joins values, the source holds several entries; their conditions need not be identical. Equal entries are not always repeated. Entries after “also recorded” stand apart in the source; their conditions may differ. Where two headings read alike, the source gives them in different places.
What was measured:
Type in all cases: cell-based
Hepatitis B virus [1] = experiment: Anti-hepatitis B virus activity in HEP-G2 cells persistently infected with HBV (Table 2); conditions: for activity at 10 µM: Hepatitis B virus, HepG2, 216 h, 9 days treatment
Procedure, shortened: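 HBV-persistently infected HepG2 cells were dosed daily with 10 μM compound in 20% FBS medium for 9 days. Medium HBsAg and HBeAg were measured by EIA and virion DNA by slot-blot hybridisation, each relative to untreated controls. EC90 (90% drop in HBV DNA replication intermediates) came from linear regression.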

Hepatitis B virus [2] = experiment: Effect on synthesis of antigen markers in persistently infected human HEP G2 cell cultures (Table 7)
Procedure, shortened: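 Persistently infected HepG2 cells treated with compound for nine days at 37° C. Culture medium then harvested: HBsAg and HBeAg quantified by EIA, virion DNA by hybridisation-based DNA measurement. Sensitivity cut-off 0.1 pg DNA/ml medium.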

Hepatitis B virus [3] = experiment: CP-51 against HBV-induced antigen syntheses in HEP-G2 cells persistently infected with HBV (Table 3); conditions: for activity at 10 µM / inhibition at 10 µM: Hepatitis B virus; for activity at 10 µM: HepG2, 216 h, 9 days treatment; for inhibition at 10 µM: HepG2
Procedure: (§1) HEP-G2 cells persistently infected with HBV were treated daily with fresh D-MEM containing 20% FBS and 10 μM compound. After 9 days incubation and treatment, the overlay medium was harvested to assay the quantity of Hepatitis B virus s antigen (HBsAg) and HBeAg by EIA (Abbott Laboratories). The overlay medium was diluted to levels of antigen in the linear range of the assay. Standard curves using dilutions of positive HBsAg and HBeAg controls were included in each assay. Virion DNA was assayed using the method set forth in Korba and Gerin, Antiviral Res., 19, 5,5-70 (1992), incorporated by reference herein. HBV DNA was extracted from the overlay medium containing virus particles and analyzed by a slot-blot hybridization technique using ^32 P-labelled 3.2 Kb Eco R1 HBV DNA fragment by comparisons to HBV standards present on nitrocellulose filters using an AMBIS beta scanner. EC90 values (90% effective concentration, i.e., drug concentration which induces a 90% decrease in the levels of HBV DNA replication intermediates in treated versus control cells) were calculated by linear regression analysis. The relative levels of HBsAg, HBeAg and virion DNA were calulated as a percentage of the average levels obtained from the untreated controls.
In contrast, CP-51 inhibited HBeAg and HBcAg syntheses by 76 and 68%, respectively.

Hepatitis B virus [4] = experiment: Effects of CP-51 on HBV-induced DNA and RNA synthesis (Table 4); conditions: for mrna remaining at 10 µM / activity at 10 µM / inhibition at 10 µM: Hepatitis B virus; for mrna remaining at 10 µM / activity at 10 µM: 9 days treatment
Procedure: as §1
Experiments were performed to determine the effects of CP-51 on HBV induced DNA and RNA syntheses. HEP-G2 cells persistently infected with HBV were treated daily with fresh D-MEM containing 20% FBS and 10 μM compound. After 9 days incubation and treatment the cells and overlay medium were harvested separately to assay the quantity of nucleic acids. Details of the methodology of the assays are given in Section B above. Extracellular virion DNA in untreated cells ranged from 50 to 150 pg/ml in the overlay medium. Intracellular HBV DNA replication intermediates (RI) in untreated cells ranged from 50 to 100 pg/μg cell DNA. Hybridization analysis results in about 1 pg intracellular HBV DNA/μg cellular DNA to 2-3 genomic copies per cell and 1.0 pg of extracellular HBV DNA/ml overlay medium to […] viral particles/ml. HBV RNA was analyzed by Northern blot hybridization analysis using a ^32 P-labeled 3.2 Kb gel-purified cloned genomic probe. Quantitive analysis of intracellular HBV DNA anc 14BV RNA was performed using an AMBIS beta scanner.

Hepatitis B virus [5] = experiment: Effect of alkyl lipid on HBV induction of antigen markers, DNA and RNA in persistently infected human HEP-G2 cell cultures (Table 8); conditions: for activity at 10 µM: Hepatitis B virus, HepG2, 216 h, nine days, untreated controls 100
Procedure: Further analyses were carried out with compound CP-51. Again, the cells were treated for nine days at 37° C. The overlay medium was harvested to measure levels of HBsAg, HBeAg, HBcAg, virion DNA, RI DNA and RNA levels. HBsAg and HBeAg were assayed by EIA (Abbott Laboratories). HBcAg was assayed by a solid phase EIA. HBV RNA was analyzed by Northern blot hybridization using a ^32 P-labelled 3.2 Kb genomic probe. Intracellular HBV RNA and RI HBV DNA was quantitated using a AMBIS beta scanner.

[6] = Cytotoxicity in HBV persistently infected human HEP G2 cells, neutral red dye uptake (Table 5); conditions: human, hep-g2 cells, % of Control Neutral Red Dye Uptake
Procedure, shortened: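 HBV-transfected HEP-G2 monolayers in RPMI-1640 were given compound at four serial concentrations in triplicate for nine days at 37 °C, with periodic medium replacement. Toxicity from 0.01% neutral red uptake (A510), as percent of nine untreated control wells on the same plate.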

In the case of `CCCCCCCCCCCCCCCCCC(=O)NCC(COP(=O)([O-])OCC[N+](C)(C)C)OCC` (racemic) [CP-51, rac-3-octadecanamido-2-ethyoxy-1-propylphosphocholine], the “activity against HBV-induced virion DNA and HBeAg syntheses” value (Hepatitis B virus [1]; 10 μM, in words) is reported as “potent inhibitory activity”, the activity at 10 µM (Hepatitis B virus [1]; 10 μM, read-out: Relative Level of HBeAg) is reported as 28% and the activity at 10 µM (Hepatitis B virus [1]; 10 μM, read-out: Relative Level of HBsAg) is reported as 99%. For the same compound, the activity at 10 µM (Hepatitis B virus [1]; 10 μM, read-out: Relative Level of Virion DNA) was 2%, the anti-HBV activity (Hepatitis B virus [1]; in words) was “most potent anti-HBV compound; also recorded: most potent anti-HBV activity” and the “Relative Level of HBeAg” value (Hepatitis B virus [2]; 10 μM, nine days, 12960 min) was 20 % of Untreated Control. The “Relative Level of HBsAg” value (Hepatitis B virus [2]; 10 μM, nine days, 12960 min) was 78 % of Untreated Control and 114 % of Untreated Control, the activity at 10 µM (Hepatitis B virus [2]; Hepatitis B virus, HepG2, 216 h, 10 μM, nine days, read-out: Relative Level of HBeAg) was 23% and the “effect on HBsAg levels released into the culture medium” value (Hepatitis B virus [2]; in words) was “None of the compounds tested”. The “reduction in HBeAg and virion DNA levels” value (Hepatitis B virus [2]; in words) was “caused a reduction; also recorded: most active compounds in suppressing HBeAg and virion DNA levels”, the “inhibitory activity against HBsAg synthesis” value (Hepatitis B virus [3]; 10 μM, in words) was “no inhibitory activity” and the activity at 10 µM (Hepatitis B virus [3]; 10 μM, read-out: Relative Levels of HBcAg) was 32%. It also gave an activity at 10 µM (Hepatitis B virus [3]; 10 μM, read-out: Relative Levels of HBeAg) of 24%, an activity at 10 µM (Hepatitis B virus [3]; 10 μM, read-out: Relative Levels of HBsAg) of 88% and an inhibition at 10 µM (Hepatitis B virus [3]; 10 μM, read-out: inhibition of HBcAg synthesis) of 68%. For the same compound, the inhibition at 10 µM (Hepatitis B virus [3]; 10 μM, read-out: inhibition of HBeAg synthesis) was 76%, the “inhibitory activity against HBeAg and HBcAg (core and e antigen) syntheses” value (Hepatitis B virus [3]; in words) was “selective inhibitory activity; also recorded: inhibit the production of the HBV antigens core antigen and e antigen” and the “effect on HBV-induced RNA syntheses” value (Hepatitis B virus [4]; 10 μM, in words) was “no significant effects”. The mrna remaining at 10 µM (Hepatitis B virus [4]; HepG2, 216 h, 10 μM, read-out: Relative Level of 2.1 Kb RNA) was 112%, the activity at 10 µM (Hepatitis B virus [4]; HepG2, 216 h, 10 μM, read-out: Relative Level of 3.2 Kb DNA) was 42% and the mrna remaining at 10 µM (Hepatitis B virus [4]; HepG2, 216 h, 10 μM, read-out: Relative Level of 3.6 Kb RNA) was 84%. The mrna remaining at 10 µM (Hepatitis B virus [4]; HepG2, 216 h, 10 μM, read-out: Relative Level of Total RNA) was 112%, the activity at 10 µM (Hepatitis B virus [4]; HepG2, 216 h, 10 μM, read-out: Relative Level of Virion DNA) was 2% and the activity at 10 µM (Hepatitis B virus [4]; HepG2, 216 h, 10 μM, replication intermediates, read-out: Relative Level of HBV RI) was 12%. For the same compound, the inhibition at 10 µM (Hepatitis B virus [4]; HepG2, 216 h, 10 μM, read-out: inhibition of 3.2 Kb DNA synthesis) was 58%, the inhibition at 10 µM (Hepatitis B virus [4]; 10 μM, read-out: inhibition of replication intermediates (RI) DNA synthesis) was 88% and the inhibition at 10 µM (Hepatitis B virus [4]; 10 μM, read-out: inhibition of virion DNA synthesis) was 98%. The “selectivity for HBV-induced antigens and nucleic acids” value (Hepatitis B virus [4]; in words) was “selective for inhibiting HBV-induced HBcAg, HBeAg, virion DNA and HBV RI syntheses but not HBsAg or RNA syntheses”, the activity at 10 µM (Hepatitis B virus [5]; read-out: Relative Level of HBcAg) was 32% and the activity at 10 µM (Hepatitis B virus [5]; read-out: Relative Level of HBeAg) was 24%. The activity at 10 µM (Hepatitis B virus [5]; read-out: Relative Level of HBsAg) was 88%, the activity at 10 µM (Hepatitis B virus [5]; read-out: Relative Level of Intracellular HBV-DNA) was 12% and the activity at 10 µM (Hepatitis B virus [5]; read-out: Relative Level of RI DNA) was 42%. For the same compound, the activity at 10 µM (Hepatitis B virus [5]; read-out: Relative Level of Total RNA) was 84%, the activity at 10 µM (Hepatitis B virus [5]; read-out: Relative Level of Virion DNA) was 2% and the “inhibition of Hepatitis B core antigen (HBcAg) levels” value (Hepatitis B virus [5]; in words) was “significantly inhibited”. The “level or size of HBV induced RNA transcripts of HBsAg” value (Hepatitis B virus [5]; in words) was “did not significantly alter”, the viability at 216 h, 3 µM [6] was 98 ± 3% and the viability at 216 h, 10 µM [6] was 102 ± 1%. The viability at 216 h, 30 µM [6] was 100 ± 3%.

From patent US6030960A, “Method of treating hepatitis virus infections” (priority 1998, dated 2000)
